# Assay results from PubChem BioAssay (NCI).
#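 1) Cells in 96-well plates. 2) Compound, 48 h, 5 concentrations. 3) Linear interpolation between surrounding doses. 4) Unreached endpoint = highest concentration. Abbreviation: GI50, concentration required for 50% inhibition of growth. TGI: concentration producing complete growth inhibition.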
# Assays:
# Experiment in all cases: growth of human tumour cells (NCI), 48 h
# HOP-62 NSCLC = tested on: HOP-62 NSCLC
# SNB-75 CNS = tested on: SNB-75 CNS
# U251 CNS = tested on: U251 CNS
# DU-145 prostate = tested on: DU-145 prostate
# SF-295 CNS = tested on: SF-295 CNS
# NCI/ADR-RES ovarian = tested on: NCI/ADR-RES ovarian
# KM12 colon = tested on: KM12 colon
# PC-3 prostate = tested on: PC-3 prostate
# UACC-62 melanoma = tested on: UACC-62 melanoma
# OVCAR-4 ovarian = tested on: OVCAR-4 ovarian
# HCT-116 colon = tested on: HCT-116 colon
# MOLT-4 leukemia = tested on: MOLT-4 leukemia
# SK-MEL-28 melanoma = tested on: SK-MEL-28 melanoma
# MDA-MB-231 breast = tested on: MDA-MB-231 breast
# RPMI-8226 leukemia = tested on: RPMI-8226 leukemia
# HL-60(TB) leukemia = tested on: HL-60(TB) leukemia
# NCI-H226 lung = tested on: NCI-H226 lung
# EKVX NSCLC = tested on: EKVX NSCLC
# SNB-19 CNS = tested on: SNB-19 CNS
# SK-MEL-2 melanoma = tested on: SK-MEL-2 melanoma
# OVCAR-8 ovarian = tested on: OVCAR-8 ovarian
# TK-10 renal = tested on: TK-10 renal
# SW-620 colon = tested on: SW-620 colon
# CCRF-CEM leukemia = tested on: CCRF-CEM leukemia
# CAKI-1 renal = tested on: CAKI-1 renal
# SK-OV-3 ovarian = tested on: SK-OV-3 ovarian
# HOP-92 NSCLC = tested on: HOP-92 NSCLC
# LOX IMVI melanoma = tested on: LOX IMVI melanoma
# HT29 colon = tested on: HT29 colon
# SK-MEL-5 melanoma = tested on: SK-MEL-5 melanoma
# SN12C renal = tested on: SN12C renal
# MDA-MB-435 = tested on: MDA-MB-435
# HCC-2998 colon = tested on: HCC-2998 colon
# OVCAR-3 ovarian = tested on: OVCAR-3 ovarian
# BT-549 breast = tested on: BT-549 breast
# UACC-257 melanoma = tested on: UACC-257 melanoma
# UO-31 renal = tested on: UO-31 renal
# OVCAR-5 ovarian = tested on: OVCAR-5 ovarian
# A549 NSCLC = tested on: A549 NSCLC
# MALME-3M melanoma = tested on: MALME-3M melanoma
# MCF7 breast = tested on: MCF7 breast
# ACHN renal = tested on: ACHN renal
# SR leukemia = tested on: SR leukemia
# RXF 393 renal = tested on: RXF 393 renal
# 786-0 renal = tested on: 786-0 renal
# IGROV1 ovarian = tested on: IGROV1 ovarian
# T-47D breast = tested on: T-47D breast
# COLO 205 colon = tested on: COLO 205 colon
# SF-268 CNS = tested on: SF-268 CNS
# NCI-H522 lung = tested on: NCI-H522 lung
# K-562 leukemia = tested on: K-562 leukemia
# HS 578T breast = tested on: HS 578T breast
# NCI-H23 lung = tested on: NCI-H23 lung
# NCI-H460 lung = tested on: NCI-H460 lung
# HCT-15 colon = tested on: HCT-15 colon
# SF-539 CNS = tested on: SF-539 CNS
# A498 renal = tested on: A498 renal
structure (smiles),measurement,setting,value
CC(C)(C)OC(=O)CN1CCc2c(sc3ncnc(N/N=C/c4cccc5ccccc45)c23)C1,GI50,HOP-62 NSCLC,2.31 µM
same,TGI,HOP-62 NSCLC,11.4 µM
same,GI50,SNB-75 CNS,1.04 µM
same,TGI,SNB-75 CNS,14.4 µM
same,GI50,U251 CNS,3.18 µM
same,TGI,U251 CNS,14.6 µM
same,GI50,DU-145 prostate,4.73 µM
same,TGI,DU-145 prostate,31.9 µM
same,GI50,SF-295 CNS,4.41 µM
same,TGI,SF-295 CNS,10.2 µM
same,GI50,NCI/ADR-RES ovarian,3.55 µM
same,TGI,NCI/ADR-RES ovarian,14.5 µM
same,GI50,KM12 colon,3.53 µM
same,TGI,KM12 colon,9.8 µM
same,GI50,PC-3 prostate,2.04 µM
same,TGI,PC-3 prostate,> 33.3 µM
same,GI50,UACC-62 melanoma,1.32 µM
same,TGI,UACC-62 melanoma,5.48 µM
same,GI50,OVCAR-4 ovarian,2.58 µM
same,TGI,OVCAR-4 ovarian,14.1 µM
same,GI50,HCT-116 colon,1.65 µM
same,TGI,HCT-116 colon,6.73 µM
same,GI50,MOLT-4 leukemia,1.26 µM
same,TGI,MOLT-4 leukemia,9.39 µM
same,GI50,SK-MEL-28 melanoma,4.41 µM
same,TGI,SK-MEL-28 melanoma,15.7 µM
same,GI50,MDA-MB-231 breast,2.64 µM
same,TGI,MDA-MB-231 breast,9.21 µM
same,GI50,RPMI-8226 leukemia,1.05 µM
same,TGI,RPMI-8226 leukemia,4.22 µM
same,GI50,HL-60(TB) leukemia,2.55 µM
same,TGI,HL-60(TB) leukemia,19.2 µM
same,GI50,NCI-H226 lung,4.28 µM
same,TGI,NCI-H226 lung,12.8 µM
same,GI50,EKVX NSCLC,2.22 µM
same,TGI,EKVX NSCLC,> 33.3 µM
same,GI50,SNB-19 CNS,4.73 µM
same,TGI,SNB-19 CNS,32.1 µM
same,GI50,SK-MEL-2 melanoma,5 µM
same,TGI,SK-MEL-2 melanoma,12.3 µM
same,GI50,OVCAR-8 ovarian,2.58 µM
same,TGI,OVCAR-8 ovarian,> 33.3 µM
same,GI50,TK-10 renal,5.34 µM
same,TGI,TK-10 renal,> 33.3 µM
same,GI50,SW-620 colon,1.8 µM
same,TGI,SW-620 colon,7.96 µM
same,GI50,CCRF-CEM leukemia,1.56 µM
same,TGI,CCRF-CEM leukemia,> 33.3 µM
same,GI50,CAKI-1 renal,3.3 µM
same,TGI,CAKI-1 renal,18.7 µM
same,GI50,SK-OV-3 ovarian,4.48 µM
same,TGI,SK-OV-3 ovarian,26.1 µM
same,GI50,HOP-92 NSCLC,1.74 µM
same,TGI,HOP-92 NSCLC,16.7 µM
same,GI50,LOX IMVI melanoma,1.72 µM
same,TGI,LOX IMVI melanoma,5.93 µM
same,GI50,HT29 colon,3.47 µM
same,TGI,HT29 colon,12.3 µM
same,GI50,SK-MEL-5 melanoma,4.08 µM
same,TGI,SK-MEL-5 melanoma,8.28 µM
same,GI50,SN12C renal,3.65 µM
same,TGI,SN12C renal,9.04 µM
same,GI50,MDA-MB-435,2.1 µM
same,TGI,MDA-MB-435,9.83 µM
same,GI50,HCC-2998 colon,3.6 µM
same,TGI,HCC-2998 colon,11.7 µM
same,GI50,OVCAR-3 ovarian,1 µM
same,TGI,OVCAR-3 ovarian,3.92 µM
same,GI50,BT-549 breast,6.03 µM
same,TGI,BT-549 breast,> 33.3 µM
same,GI50,UACC-257 melanoma,4.59 µM
same,TGI,UACC-257 melanoma,21.7 µM
same,GI50,UO-31 renal,1.19 µM
same,TGI,UO-31 renal,5.87 µM
same,GI50,OVCAR-5 ovarian,3.34 µM
same,TGI,OVCAR-5 ovarian,8.41 µM
same,GI50,A549 NSCLC,3.03 µM
same,TGI,A549 NSCLC,> 33.3 µM
same,GI50,MALME-3M melanoma,3.51 µM
same,TGI,MALME-3M melanoma,8.69 µM
same,GI50,MCF7 breast,0.923 µM
same,TGI,MCF7 breast,2.85 µM
same,GI50,ACHN renal,1.59 µM
same,TGI,ACHN renal,7.5 µM
same,GI50,SR leukemia,1.46 µM
same,TGI,SR leukemia,15.2 µM
same,GI50,RXF 393 renal,1.56 µM
same,TGI,RXF 393 renal,6.93 µM
same,GI50,786-0 renal,4.11 µM
same,TGI,786-0 renal,16.4 µM
same,GI50,IGROV1 ovarian,1.87 µM
same,TGI,IGROV1 ovarian,7.4 µM
same,GI50,T-47D breast,1.83 µM
same,TGI,T-47D breast,17.9 µM
same,GI50,COLO 205 colon,1.07 µM
same,TGI,COLO 205 colon,3.93 µM
same,GI50,SF-268 CNS,3.59 µM
same,TGI,SF-268 CNS,24.3 µM
same,GI50,NCI-H522 lung,2.16 µM
same,TGI,NCI-H522 lung,12.4 µM
same,GI50,K-562 leukemia,1.08 µM
same,TGI,K-562 leukemia,> 33.3 µM
same,GI50,HS 578T breast,1.42 µM
same,TGI,HS 578T breast,16 µM
same,GI50,NCI-H23 lung,4.19 µM
same,TGI,NCI-H23 lung,17.4 µM
same,GI50,NCI-H460 lung,1.62 µM
same,TGI,NCI-H460 lung,6.22 µM
same,GI50,HCT-15 colon,2.2 µM
same,TGI,HCT-15 colon,9.57 µM
same,GI50,SF-539 CNS,1.73 µM
same,TGI,SF-539 CNS,7.02 µM
same,GI50,A498 renal,3.78 µM
same,TGI,A498 renal,11.9 µM
